Data published in PubChem BioAssay AID2060892 (Molecular Pharmacology Branch, DTP, NCI, 2025).
Where “and” joins values, the source holds several entries; their conditions need not be identical. Equal values may be shown once.

Tested on: HOP-62 complex spheroids with HUVEC/MSC, viability
Test: Anticancer human tumor HOP-62 cell line growth inhibition [RAS];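 note: spheroids exposed to agents for seven days before readout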;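 for viability, T/C: 100% = DMSO vehicle control viability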
Conditions: for IC50: curve of first compound; for viability, T/C: stronger effect = lower value
How it was run: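 Tumour cells grown as complex spheroids with HUVEC endothelial cells and mesenchymal stem cells, treated with RAS pathway inhibitor combinations. Each agent spans half-log steps from near clinical Cmax, or 10 microM where Cmax is unknown.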

CC1(O)CCCC1n1c(=O)c(C(F)F)cc2cnc(NC3CCN(S(C)(=O)=O)CC3)nc21 (stereo not given) + CCn1c(-c2cc(N3CCN(C)CC3)cnc2C(C)OC)c2c3cc(ccc31)-c1csc(n1)CC(NC(=O)C1CC1C)C(=O)N1CCCC(N1)C(=O)OCC(C)(C)C2
IC50 (second compound 0.000949 µM): 5.05 µM | IC50 (second compound 0.003 µM): 3.77 µM | IC50 (second compound 0.00949 µM): 1.06 µM | IC50 (second compound 0.03 µM): < 0.0316 µM | IC50 (second compound 0.0949 µM): < 0.0316 µM | IC50 (second compound 0.3 µM): < 0.0316 µM | viability, T/C (second compound 0.000949 µM, first compound 0.0316 µM): 104% | viability, T/C (second compound 0.000949 µM, first compound 0.1 µM): 87.2% | viability, T/C (second compound 0.000949 µM, first compound 0.316 µM): 57.5% | viability, T/C (second compound 0.000949 µM, first compound 1 µM): 80.3% | viability, T/C (second compound 0.000949 µM, first compound 3.16 µM): 83.6% | viability, T/C (second compound 0.000949 µM, first compound 10 µM): 2.49% | viability, T/C (second compound 0.003 µM, first compound 0.0316 µM): 87.4% | viability, T/C (second compound 0.003 µM, first compound 0.1 µM): 65.2% | viability, T/C (second compound 0.003 µM, first compound 0.316 µM): 58.9% | viability, T/C (second compound 0.003 µM, first compound 1 µM): 62.3% | viability, T/C (second compound 0.003 µM, first compound 3.16 µM): 61.1% | viability, T/C (second compound 0.003 µM, first compound 10 µM): 2.49% | viability, T/C (second compound 0.00949 µM, first compound 0.0316 µM): 69.7% | viability, T/C (second compound 0.00949 µM, first compound 0.1 µM): 53.8% | viability, T/C (second compound 0.00949 µM, first compound 0.316 µM): 57.8% | viability, T/C (second compound 0.00949 µM, first compound 1 µM): 46.5% | viability, T/C (second compound 0.00949 µM, first compound 3.16 µM): 40.6% | viability, T/C (second compound 0.00949 µM, first compound 10 µM): 2.35% | viability, T/C (second compound 0.03 µM, first compound 0.0316 µM): 49.7% | viability, T/C (second compound 0.03 µM, first compound 0.1 µM): 44.1% | viability, T/C (second compound 0.03 µM, first compound 0.316 µM): 36.5% | viability, T/C (second compound 0.03 µM, first compound 1 µM): 49.3% | viability, T/C (second compound 0.03 µM, first compound 3.16 µM): 23.2% | viability, T/C (second compound 0.03 µM, first compound 10 µM): 2.84% | viability, T/C (second compound 0.0949 µM, first compound 0.0316 µM): 32.5% | viability, T/C (second compound 0.0949 µM, first compound 0.1 µM): 33.9% | viability, T/C (second compound 0.0949 µM, first compound 0.316 µM): 33.8% | viability, T/C (second compound 0.0949 µM, first compound 1 µM): 37.1% | viability, T/C (second compound 0.0949 µM, first compound 3.16 µM): 19.5% | viability, T/C (second compound 0.0949 µM, first compound 10 µM): 3.11% | viability, T/C (second compound 0.3 µM, first compound 0.0316 µM): 36.9% | viability, T/C (second compound 0.3 µM, first compound 0.1 µM): 34.2% | viability, T/C (second compound 0.3 µM, first compound 0.316 µM): 34.3% | viability, T/C (second compound 0.3 µM, first compound 1 µM): 30.9% | viability, T/C (second compound 0.3 µM, first compound 3.16 µM): 20.8% | viability, T/C (second compound 0.3 µM, first compound 10 µM): 3.29%

O=C(c1ccc(F)c(F)c1Nc1ccc(I)cc1F)N1CC(O)([C@@H]2CCCCN2)C1
viability, T/C (compound 0.00316 µM): 102% [middle of 4 runs] | viability, T/C (compound 0.01 µM): 105% (2×) and 96.9% and 97.5% | viability, T/C (compound 0.0316 µM): 102% [middle of 4 runs]
